Legend:
bovine PKC alpha [1] = test: PKC catalytic activity in vitro (phosphorylation of [ser25]PKC19-31 in detergent cell extracts); format: biochemical; settings: for PMA and Ca^2+ stimulated mutant PKC activity: Ca^2+: Ca^2+ stimulation of in vitro catalytic activity; for PMA and Ca^2+ stimulated mutant PKC activity: PMA: PMA stimulation, common symbol for in vitro catalytic activity and PMA-mediated increase of cell doubling time; for PMA and Ca^2+ stimulated mutant PKC activity: -: no stimulus (basal), common symbol for in vitro catalytic activity and cell doubling time response; for inhibition of PKC alpha catalytic activity / activation of PKC alpha in vitro: PKC alpha expressed in yeast
Description: FIG. 4 is a graph which compares PKC mutant and wild type catalytic activities in vitro. […] Catalytic activity was stimulated by combinations of phosphatidylserine (PS), the phorbol ester PMA and calcium ions (Ca^2+). PS, open; PMA+PS, solid; Ca^2+ +PS, diagonally striped.
Cell lysis. About 6×10^8 expressing cells were washed in PBS and were resuspended in 1 ml lysis buffer containing 1% Triton X100, 50 mM Hepes pH 7.4, 15-mM NaC1, 5 mM EDTA, 5 mM EGTA, 10 μg/ml pepstatin, 40 μg/ml leupeptin, 10 μg/ml aprotinin and 200 μg/ml PMSF. Cell suspensions mixed with the same volume of acid washed glass beads (450-500 μm) were lysed mechanically by six 30 second vortexing steps interrupted by cooling on ice for at least 30 second in 50 ml screw cap polypropylene tubes. The lysate was cleared by 4,000 g centrifugation for 15 minutes at 4 degrees C and stored at […] for up to several weeks.
PKC catalytic activity. […] Phosphatidylserine in chloroform, with or without PMA was evaporated under N2 to dryness, resuspended in 20 mM Tris pH 7.5, mixed and sonicated at 4 degrees C for 45 seconds before use. To terminate the reaction the sample was placed on phosphocellulose paper (Whatman P81) which was repeatedly washed in 75 mM phosphoric acid. Bound radioactivity was determined by liquid scintillation spectroscopy.

[2] = test system: Saccharomyces cerevisiae strain 334 expressing bovine PKC alpha; test: Cell doubling time of yeast cultures expressing PKC alpha wild type and mutant cDNAs; format: cell-based
Description: FIG. 2 is a graph of cell doubling time of yeast cultures expressing PKC alpha wild type and mutant cDNAs. Freshly saturated cultures expressing control plasmids (Cont.), normal PKC alpha (PKCa) or deletion mutants D172-225, ND153 or CD26 were diluted to low cell densities. Cell growth was followed on a roller at 30 degrees C to measurable cell densities of the logarithmic growth phase at 0.2-0.6 O.D. 600. […] Average doubling times were calculated.
Yeast strains and culture conditions. PKC expression plasmids and YEp51 or YEp52 as controls were introduced into Saccharomyces cerevisiae strain 334 [MAT alpha, pep 4-3, prb1-122, ura 3-52; leu2-3, 112, reg1-501, gal1]by lithium acetate transformation See e.g., Ito et al. 1983, J. Bacterial. 153: 163. Cells were routinely grown at 30 degrees C on a culture roller or shaker in liquid culture or on 1.5% agar plates. The synthetic medium contained 2% glucose and was leucine-free to select for stable propagation of the expression plasmids. Expressing yeast colonies were identified phenotypically by replica plating on medium containing or lacking PMA. Phenol extracts of crude cell lysates were prepared to re-transform Escherichia coli DH5 alpha. PKC mutants were characterized by DNA sequencing and defined plasmids were re-introduces into S. cerevisiae 334. These strains were used in all experiments shown. 50 ml cultures were routinely inoculated from freshly saturated cultures and grown for 16 h to an optical density of 0.4 at O.D.600.
Cell doubling times were measured by O.D.600 reading of liquid cultures in the presence of 2% galactose as shown in FIG. 2 to test whether they correlate with the specific phenotypes (colony size) caused by normal mutant PKC alpha. […] A normal 4 hours doubling time was measured for all constructs in the absence of galactose.

[3] = test system: Saccharomyces cerevisiae strain 334 expressing bovine PKC alpha; test: Phenotypic screen of PKC alpha mutant activity by yeast colony size on agar plates; format: cell-based; settings: 2% galactose, independent of phorbol ester
Description: The phenotypic screen of PKC alpha mutant activity by yeast colony size was performed as follows. […] Plates (9 cm diameter) were photograph after 3 days.
Galactose stimulation of cDNA expression resulted for some PKC forms in specific, decreased yeast colony sizes which were either dependent on or independent of phorbol ester activation after 3 days. […] Microscopically small colonies expressing ND153 grew to visible sizes with rates independently of PMA. Colonies expressing PKC alpha grew even more slowly to visible sizes during continued incubation in the presence of PMA.

[4] = test system: Saccharomyces cerevisiae strain 334 expressing bovine PKC alpha; test: 45Ca2+ uptake into yeast cells expressing PKC alpha forms; format: cell-based
Description: FIG. 5 is a graph of the modulation of extracellular Ca2+uptake by PKC alpha wild type and mutants.
^45 Ca^2 + uptake. Expressing yeast cells after 16 h in 2% galactose medium were washed with PBS when reaching 0.5 O.D.600. 10^7 cells were suspended in 100 μl of 50 mM MES pH 6.5, 5 mM MgSO4 and incubated with 1 μM PMA for 1 h at 30 degrees C under shaking on 96-well plates. Subsequently uptake of 2 μCi 45 Ca2+ at 300 μM CaCl2 was measured for 2 hours. Cells were rapidly transferred to Multiscreen filtration microtiter plates (Millipore) and washed four times with 200 μl of 10 mM MES, 10 mM Tris, 35 mM CaC12 pH 6.0. Filters were dried and cell-associated radioactivity was determined by liquid scintillation spectroscopy.
Ca^2+ influx has been reported in response to PKC activation in a variety of eukaryotic cells such as Nitella syncarpa plasmalemma, Aplysia bag cell neurons, rat ventricular myocytes and rat pituitary cells. To test whether the measured catalytic activities and the yeast phenotype correlate with other biological responses mediated by PKC, ^45 Ca^2+ uptake into expressing cells was determined after PMA stimulation. […] These responses are consistent with the catalytic activities and phenotypic responses of the mutants: elevated basal activity of ND153, full and reduced phorbol ester-stimulated activity of normal PKC alpha and D172-225, respectively, and lack of activity for CD26.

bovine PKC alpha [5] = test: [3H]PDBu binding to yeast spheroplasts expressing PKC alpha forms; settings: 14 nM [3H]PDBu
Description: FIG. 3 is a graph of phorbol ester binding to cells expressing PKC alpha wild type and mutant proteins.
Phorbol ester binding. About 6×10^8 expressing cells were washed twice in 10 mM K-phosphate buffer pH 7.0, 20 mM EDTA, once in 1M sorbitol and were resuspended in 10 ml 10 mM K-phosphate buffer pH 7.0, 1.1M sorbitol, 0.5 mM CaC12. Cells were incubated with 1 U glusulase (beta-glucuronidase/arylsulfatase from Helix pomatia, Boehringer Mannheim) for about 1 hour under shaking at 30 degrees C to remove the cell wall until test cell suspensions cleared in H2 O due to cell lysis.
Both were about 13-fold elevated over background levels of control cells. Similar findings have been reported for PKC overexpression in transfected mammalian fibroblasts. […] The internal deletion of aa 172-225 led to phorbol ester binding levels reduced by 60% compared to normal PKC alpha, a potential consequence of the removal of parts of the C2 domain.

Row | Molecule | PMA and Ca^2+ stimulated mutant PKC activity: Ca^2+ (bovine PKC alpha [1]) | PMA and Ca^2+ stimulated mutant PKC activity: PMA (bovine PKC alpha [1]) | PMA and Ca^2+ stimulated mutant PKC activity: - (bovine PKC alpha [1]) | inhibition of PKC alpha catalytic activity (bovine PKC alpha [1]) | activation of PKC alpha in vitro (bovine PKC alpha [1]) | also measured
1 | CD110: PKC alpha deletion mutant lacking 110 carboxyl terminal aa | - | - | - |  |  | 
2 | CD149: PKC alpha deletion mutant lacking 149 carboxyl terminal aa | - | - | - |  |  | 
3 | CN(C)c1ccc2cc3ccc(N(C)C)cc3nc2c1 [acridine orange, reference compound] |  |  |  | efficiently inhibited |  | 
4 | CD139: PKC alpha deletion mutant lacking 139 carboxyl terminal aa | - | - | - |  |  | 
5 | ND158: PKC alpha deletion mutant lacking 158 amino terminal aa | ++ | + | + |  |  | 
6 | ND153: PKCa deletion of aa 1-153 | ++ | + | + |  |  | stimulation of catalytic activity by phorbol ester (bovine PKC alpha [1]; PMA + phosphatidylserine): PMA-unresponsive; catalytic activity in the presence of phosphatidylserine alone (elevated level) (bovine PKC alpha [1]; phosphatidylserine alone): 10 fold; average cell doubling time ([2]; absence of phorbol ester, 2% galactose, synthetic minimal medium, CD26 and ND153 values phorbol ester-independent): 12 h; yeast colony size / phenotype [3]: microscopically small colonies independent of phorbol ester activation; Ca2+ uptake after PMA stimulation over the control cell background ([4]; 1 μM PMA): unaffected by phorbol ester; increase in Ca^2+ uptake (basal) ([4]; without PMA stimulation, versus control cells): ~3 fold; [3H]PDBu binding level over background levels of control cells (bovine PKC alpha [5]): virtually background
7 | CC1=C[C@H]2[C@@]3(O)[C@H](C)C[C@]4(OC(=O)Cc5ccccc5)[C@H]([C@@H]3C=C(CO)C[C@]2(O)C1=O)C4(C)C [dPP, 12-deoxyphorbol 1 3-phenylacetate, reference compound] |  |  |  |  | efficiently activated | 
8 | CC1=CC23C(=O)C(C=C(COC(=O)c4ccccc4)C(O)C2(O)C1OC(=O)c1ccccc1)C1C(CC3C)C1(C)C (stereo not shown) [ID, ingenol 3,20-dibenzoate, reference compound] |  |  |  |  | efficiently activated | 
9 | CCCCCCCCCCN(C)c1cc(CO)cc(NC(C)=O)c1 [ADMB, 3-(N-acetylamino)-5(N-decyl-N-methylamino) benzyl alcohol, reference compound] |  |  |  |  | efficiently activated | 
10 | CC1CNCCN1S(=O)(=O)c1cccc2cnccc12 (racemic) [H-7, reference compound] |  |  |  | efficiently inhibited |  | 
11 | COc1ccc2c(c[n+](C)c3c4cc5c(cc4ccc23)OCO5)c1OC [chelerythrine, reference compound] |  |  |  | efficiently inhibited |  | 
12 | Cc1cc(N)c2ccccc2[n+]1CCCCCCCCCC[n+]1c(C)cc(N)c2ccccc21 [dequalinium, reference compound] |  |  |  | efficiently inhibited |  | 
13 | polymyxin B [reference compound] |  |  |  | efficiently inhibited |  | 
14 | ND84: PKC alpha deletion mutant lacking 84 amino terminal aa | ++ | + | + |  |  | 
15 | ND188: PKC alpha deletion mutant lacking 118 amino terminal aa (printed ND188 in Table 1) | ++ | + | + |  |  | 
16 | CC(C)[C@H]1C(=O)N[C@H](CO)Cc2c[nH]c3cccc(c23)N1C [(-)-indolactam V, reference compound] |  |  |  |  | efficiently activated | 
17 | CCCCCCCCCCCCCC(=O)O[C@@H]1[C@@H](C)[C@@]2(O)[C@@H](C=C(CO)C[C@]3(O)C(=O)C(C)=C[C@@H]23)[C@@H]2C(C)(C)[C@]12OC(C)=O [PMA, phorbol-12-myristate-13-acetate, reference compound] |  |  |  |  | efficiently activated | response of wild-type yeast cells (doubling time, colony size) ([2]; wild-type yeast cells without mammalian PKC, 1 μM PMA): did not respond
18 | CCCCCCCCCCNc1cc(CO)c2cc[nH]c2c1 [DHI, 6-(N-decylamino)-4-hydroxymethylindole, reference compound] |  |  |  |  | efficiently activated | 
19 | C=C(C)C12OC3(c4ccccc4)OC1C1C4OC4(CO)C(O)C4(O)C(=O)C(C)=CC4C1(O3)C(C)C2OC(=O)/C=C/C=C/c1ccccc1 (stereo not shown) [mezerein, reference compound] |  |  |  |  | efficiently activated | 
20 | CD96: PKC alpha deletion mutant lacking 96 carboxyl terminal aa | - | - | - |  |  | 
21 | CCCCCCCCCCCCC/C=C/[C@@H](O)[C@@H](N)CO[C@@H]1O[C@H](CO)[C@H](O)[C@H](O)[C@H]1O [psychosine, reference compound] |  |  |  | efficiently inhibited |  | 
22 | CN1CCN(CCCN2c3ccccc3Sc3ccc(C(F)(F)F)cc32)CC1 [trifluoperazine, reference compound] |  |  |  | efficiently inhibited |  | 
23 | ND 140: PKC alpha deletion mutant lacking 140 amino terminal aa | ++ | + | + |  |  | 
